Measurements published in publication PMC12203428, “Discovery of Clonixeril as a Sub-Femtomolar Modulator of the Human STING Receptor” (ACS Central Science, 2025).
“Also recorded” adds a separate entry of the source.

Experiments:
[1] = system: hSTING WT pathway (THP1 Dual KI-hSTING-R232 cells, IRF3 luciferase reporter); assay: THP-1 IRF3 luciferase inhibition assay with diABZI3 as activator; type: cell-based, human
Text: To validate our initial observations that CXL has extraordinary potency for a small molecule antagonist, we extended our THP-1 cell luciferase reporter experiment by using diABZI3 as an agonist and using BBCl-amidine (a previously reported STING antagonist) as an antagonist control. , Furthermore, because the results were so unprecedented, we conducted these experiments in a different laboratory (U. Mass Chan. vs Univ. So. FL) and with different individuals performing the experiments.
The cells were grown in RPMI 1640, 2 mM L-glutamine, 25 mM HEPES, 10% heat-inactivated fetal bovine serum, 100 μg/mL Normocin, and Pen-Strep (100 U/mL–100 μg/ mL). For selection, the cells were passaged with and without the addition of antibiotics (10 μg/mL Blasticidin and 100 μg/mL Zeocin) to the growth medium every other passage. […] The cells were counted in a cell counter to obtain a cell density of 1 × 10^6 cells/mL of the test media. […] QUANTI-Luc (InvivoGen) reagent was then diluted in 30 mL of water, 75 μL was added to each well, and luminescence was read immediately (PerkinElmer Envision 2105). The data were normalized to the DMSO only controls (without diABZI3 or 2′,3′-cGAMP), and percentage activation was calculated based on the diABZI3 or 2′,3′-cGAMP only control. […]

hSTING = hSTING (Homo sapiens, UniProt Q86WV6, H232R); assay: Summary of interaction of CXL with hSTING in vitro and in cellulo; conditions: read-out: EC50, first mode of interaction with hSTING
[2] = system: hSTING WT pathway (THP1 Dual KI-hSTING-R232 cells, IRF3 luciferase reporter)
Experimental: 2 Luciferase assay utilizing monocytic leukemia (THP-1) cells. Cells (Invivogen THP1 Dual KI-hSTING-R232; wild type) were analyzed for activation of the hSTING WT pathway via an IRF3 luciferase reporter. Luminescence is reported in relative luminescence units (RLU).
A study was performed to determine that five hundred thousand cells/mL was the optimal cell density. An optimization study was performed to determine the maximum DMSO percentage so as not to impact the viability of the cells. […] The chosen concentration was 4 μM. The cells were tested with lipofectamine and compared to wells prepared without lipofectamine.

inflammation in rats = system: inflammation in rats; parameters: method as in not given; conditions: 30–300 mg/kg, ref not given, cited from earlier work
SUMO-hSTING CTD = SUMO-hSTING CTD (Homo sapiens, UniProt Q86WV6, H232R); assay: Isothermal titration calorimetry; type: binding; parameters: human STING (amino acid 155–343) was synthesized and subcloned into pET28a vector; made in house; host or cells: E. coli BL21(DE3)
SUMO-hSTING CTD, sequence (Q86WV6 155-343 H232R): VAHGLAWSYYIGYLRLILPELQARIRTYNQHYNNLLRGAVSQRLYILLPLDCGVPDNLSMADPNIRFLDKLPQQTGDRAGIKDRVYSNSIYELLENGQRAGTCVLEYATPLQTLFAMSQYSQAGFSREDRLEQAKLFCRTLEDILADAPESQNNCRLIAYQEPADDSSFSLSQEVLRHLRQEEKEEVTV
Text: In order to further explore the interaction between CXL and hSTING CTD, we employed Isothermal calorimetry (ITC) to measure the heat evolved accompanying CXL’s effect on SUMO-hSTING^WT CTD. […] In Figure A, we show the ITC data we obtained. […]. […] In Figure B, we also find that the binding isotherm is far from steady state or equilibrium, and thus, we could not obtain reliable thermodynamic parameters. Nonetheless, a significant amount of heat was released in the process of CXL interacting with the hSTING CTD. On the other hand, we were most interested in ITC measurements taken at femtomolar concentrations, given the biophysical experiments and in cellulo studies already described. Initial experiments treating the hSTING CTD with femtomolar concentrations of CXL were unsuccessful, likely due to the insensitivity of the instrument. […]. MicroCal ITC200 instrument (Malvern Pananalytical) was used to assess STING and CXL interactions. Both recombinantly purified STING domains (residues 155–343) containing a SUMO tag and CXL were buffer-exchanged and made in the same buffer composition, respectively, to avoid buffer mismatch. The same buffer cocktail was used in all ITC experiments, containing 25 mM HEPES (pH, 7.4), 150 mM NaCl, 5% glycerol, 0.5 mM TCEP, and 5% DMSO. STING protein from −80 °C aliquots was spun down at 12,000 RPM for 5–10 min before each run to remove any aggregates, diluted into the ITC buffer above (either as 40 μM STING alone or as 40 μM STING plus 20 μM 2,3-cGAMP), and loaded into the cell. CXL at various concentrations for different experiments was loaded into the syringe (Hamilton). For the control and reference, an ITC buffer devoid of CXL was used. ITC experiments were conducted at 25 °C using an initial 0.4 μL injection and 19 subsequent injections of 2 μL each at 150 s intervals. Heat of dilution (differential power) of the 19 injections resulting from the binding event was fitted into the nonlinear least-squares equation incorporated in the MicroCal ITC200 analysis software. The K D and other thermodynamic parameters were derived from curve fitting using MicroCal software.

Cc1c(Cl)cccc1Nc1ncccc1C(=O)OCC(O)CO (centres unmarked) [CXL, clonixeril]
Response to diABZI3 with CXL 100 nM to 100 aM ([1]; 50 nM diABZI3): inverse dose response
Effect of higher concentrations of CXL on diABZI3 signal ([1]; 50 nM diABZI3, Figure 2C): enhancement of the diABZI3 signal
EC50 (hSTING): > 1 nM
Antagonism of hSTING pathway in luciferase reporter assay ([2]; compound 1 h, then 4 μM 2′,3′-cGAMP): inverse dose response; also recorded: antagonism of the hSTING^WT pathway
Concentration of maximum inhibition ([2]; reviewer's summary of IRF3 reporter assay): 100 aM
Ulcerogenic effects (inflammation in rats): without producing significant ulcerogenic effects
Anti-inflammatory effect (inflammation in rats; oral): anti-inflammatory effects
Heat produced (SUMO-hSTING CTD; 400 μM CXL into 40 μM hSTING CTD): essentially the same amount of heat as c-diGMP
Heat released per injection (SUMO-hSTING CTD; 400 μM clonixeril + 20 μM 2′,3′-cGAMP, reviewer's reading of Fig 6C): 13 kcal/mol
Heat evolution (SUMO-hSTING CTD; 1.5 fM CXL into 40 μM SUMO-hSTING CTD + 20 μM 2′,3′-cGAMP): significant evolution of heat
Heat released per injection (SUMO-hSTING CTD; 1.5 fM clonixeril into 40 μM hSTING CTD + 20 μM 2′,3′-cGAMP, first 15 injections): -7 to -2 kcal/mol
